Experimental data as given in patent publication US10308615B2, “Heterocyclic compounds as inhibitors of Vanin-1 enzyme” (Pfizer Inc., priority 2015, dated 2019).

How the values were obtained:
human vanin-1 [1] = molecular target: T1, human vanin-1 (Homo sapiens (Human), UniProt O95497); assay: Human Vanin-1 Enzyme Assay 3; type: biochemical; conditions: 2 nM human vanin-1, 10 uM substrate, 15 min
Method: Human Vanin-1 Enzyme Assay 3.
(§1) The in vitro assay measures enzymatic cleavage of the fluorescently-labeled vanin substrate, pantetheine 7-amino-4-trifluoromethylcoumarin, by human vanin-1.
(§2) The vanin-1 protein was prepared in-house from a construct expressing the extracellular domain of human vanin-1 (GenBank ID NM_004666) preceded N-terminally by the honey bee melittin signal peptide, a GSG linker sequence, a His6X tag and a FLAG tag. The secreted, soluble enzyme was purified from the conditioned medium from a CHO cell line stably expressing the resulting protein. Enzyme purification was performed through sequential Ni NTA and size-exclusion chromatography steps.
On the day of the assay, dose response plates were prepared by diluting the inhibitors in DMSO at compound concentration 100-fold the final in-assay concentration. Concentration series were prepared by serially diluting in DMSO in a two-fold series for a total of 11 data points. Intermediate compound plates containing compound in 10% DMSO were then created by diluting the compounds 10-fold in assay buffer consisting of 50 mM Tris-HCl pH=8.0, 50 mM KCl, 0.005% Brij-35 and 1.5 mM cysteamine. To begin the assay 3 μL were transferred from the intermediate compound plate to the assay plate.
A working solution of human vanin-1 was prepared by diluting the enzyme stock to 2.5 nM in assay buffer. Next, 24 μL of the vanin-1 working solution were transferred to the assay plate. The enzyme reaction was then initiated by the addition of 3 μL of 100 μM pantetheine 7-amino-4-trifluoromethylcoumarin prepared in 5 uM acetic acid. The final concentrations in the assay were 2 nM human vanin-1 and 10 uM substrate. The final concentration of DMSO was 1%. The assay plates were incubated at room temperature for 15 minutes and before they were read on a Tecan Safire using a 405 nm excitation wavelength and a 505 nm emission wavelength for detection.

human vanin-1 [2] = molecular target: T1, human vanin-1; assay: Human Vanin-1 Enzyme Assay 1; type: biochemical; conditions: 25 pM human vanin-1, 50 uM pantetheine 7-amino-4-trifluoromethylcoumarin, 30 min preincubation, 60 min
Method: Human Vanin-1 Enzyme Assay 1.
as §1, §2
The test inhibitors were solubilized in DMSO to a stock concentration of 30 mM. On the day of the assay, dose response plates were prepared by diluting the inhibitors in DMSO at compound concentration 200-fold the final in-assay concentration. Intermediate concentrations were prepared by diluting in DMSO in a four-fold series for a total of 11 data points.
To prepare a working solution of human vanin-1, the enzyme was diluted to 33.3 pM in the assay buffer consisting of 50 mM Tris-HCl pH=8.0, 50 mM KCl, 0.005% Brij-35 and […] cysteamine. To begin the assay 100 nL was transferred from the compound plate to the assay plate. Next, 15 μL of the vanin-1 working solution were transferred to the assay plate. The inhibitor and enzyme were incubated at room temperature for 30 minutes. The enzyme reaction was then initiated by the addition of 5 μL of 200 μM pantetheine 7-amino-4-trifluoromethylcoumarin prepared in assay buffer. The final concentrations in the assay were 25 pM human vanin-1 and 50 uM substrate. The final concentration of DMSO was 0.5%. The assay plates were incubated for 60 minutes and before they were read on a Perkin Elmer EnVision Model 2103 using a 405 nm excitation wavelength and a 510 nm emission wavelength for detection.

T1 sequence (O95497 22-491): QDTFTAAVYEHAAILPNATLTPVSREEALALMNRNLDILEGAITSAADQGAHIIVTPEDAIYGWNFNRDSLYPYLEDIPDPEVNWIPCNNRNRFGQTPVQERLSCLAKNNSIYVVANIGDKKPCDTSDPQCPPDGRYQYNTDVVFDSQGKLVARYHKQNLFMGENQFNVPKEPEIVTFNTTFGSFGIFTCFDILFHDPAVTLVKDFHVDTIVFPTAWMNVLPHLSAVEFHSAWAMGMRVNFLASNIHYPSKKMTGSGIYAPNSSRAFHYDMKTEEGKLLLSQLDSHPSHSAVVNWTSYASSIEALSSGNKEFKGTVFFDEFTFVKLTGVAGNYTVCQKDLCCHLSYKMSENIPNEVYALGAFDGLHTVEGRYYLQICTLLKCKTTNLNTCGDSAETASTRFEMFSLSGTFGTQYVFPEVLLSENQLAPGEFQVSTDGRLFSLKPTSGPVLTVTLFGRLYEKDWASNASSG

Row | Structure (SMILES) | IC50 (human vanin-1 [1]) [nM] | IC50 (human vanin-1 [2]) [nM]
1 | N#Cc1cccc(C(=O)c2cnc(NC3(c4cccnc4)CC3)nc2)c1 [Example 2, 3-[(2-{[1-(pyridin-3-yl)cyclopropyl]amino}pyrimidin-5-yl)carbonyl]benzonitrile] | 2.1 | –
2 | O=C(c1cnc(NCc2cccnc2)nc1)c1ccc(F)c(F)c1 [Example 22, (3,4-difluorophenyl){2-[(pyridin-3-ylmethyl)amino]pyrimidin-5-yl}methanone] | 43.7 | 93.3
3 | N#Cc1cccc(CNc2ncc(C(=O)c3cccc(Cl)c3)cn2)c1 [Example 26, 3-({[5-(3-chlorobenzoyl)pyrimidin-2-yl]amino}methyl) benzonitrile] | 63.2 | 4170
4 | O=C(c1cnc(NCc2ccncc2)nc1)c1cccc(C(F)(F)F)c1 [Example 56, {2-[(pyridin-4-ylmethyl)amino]pyrimidin-5-yl}[3-(trifluoromethyl)phenyl]methanone] | 36.2 | –
5 | O=C(c1cnc(NCc2ccc(OC(F)(F)F)cc2)nc1)c1cccc(C(F)(F)F)c1 [Example 58, (2-{[4-(trifluoromethoxy)benzyl]amino}pyrimidin-5-yl)[3-(trifluoromethyl)phenyl]methanone] | 133 | –
6 | O=C(c1cnc(NCc2ccc(Cl)cc2F)nc1)c1cccc(C(F)(F)F)c1 [Example 61, {2-[(4-chloro-2-fluorobenzyl)amino]pyrimidin-5-yl}[3-(trifluoromethyl)phenyl]methanone] | 24.9 | –
7 | O=C(c1cnc(NC2(c3cccnc3)CC2)nc1)c1cccc(C(F)(F)F)c1 [Example 71, (2-{[1-(pyridin-3-yl)cyclopropyl]amino}pyrimidin-5-yl)[3-(trifluoromethyl)phenyl]methanone] | 23.8 | –
8 | N#Cc1ccc(CNc2ncc(C(=O)c3cccc(C(F)(F)F)c3)cn2)cc1 [Example 76, 4-[({5-[3-(trifluoromethyl)benzoyl]pyrimidin-2-yl}amino)methyl] benzonitrile] | 112 | –
9 | O=C(c1cnc(NCc2ccnnc2)nc1)c1cccc(C(F)(F)F)c1 [Example 122, {2-[(pyridazin-4-ylmethyl)amino]pyrimidin-5-yl}[3-(trifluoromethyl)phenyl]methanone] | 601 | –
10 | N#Cc1cc(Cl)cc(C(=O)c2cnc(NC3(c4cncnc4)CC3)nc2)c1 [Example 146, 3-chloro-5-[(2-{[1-(pyrimidin-5-yl)cyclopropyl]amino}pyrimidin-5-yl)carbonyl] benzonitrile] | – | 26
11 | NC(=O)c1cccc(C(=O)c2cnc(NC3(c4cnccn4)CC3)nc2)c1 [Example 147, 3-[(2-{[1-(pyrazin-2-yl)cyclopropyl]amino}pyrimidin-5-yl)carbonyl] benzamide] | – | 55.7
12 | O=C(O)c1cccc(C(=O)c2cnc(NC3(c4cncnc4)CC3)nc2)c1 [Example 148, 3-[(2-{[1-(pyrimidin-5-yl)cyclopropyl]amino}pyrimidin-5-yl)carbonyl] benzoic acid] | – | 260
13 | NC(=O)c1cccc(C(=O)c2cnc(NC3(c4cncnc4)CC3)nc2)c1 [Example 149, 3-[(2-{[1-(pyrimidin-5-yl)cyclopropyl]amino}pyrimidin-5-yl)carbonyl] benzamide] | – | 25.6
14 | O=C(O)Cc1cccc(C(=O)c2cnc(NC3(c4cncnc4)CC3)nc2)c1 [Example 150, {3-[(2-{[1-(pyrimidin-5-yl)cyclopropyl]amino}pyrimidin-5-yl)carbonyl]phenyl}acetic acid] | – | 23.9
15 | N#Cc1cccc(C(=O)c2cnc(NC3(c4cnc(N)cn4)CC3)nc2)c1 [Example 151, 3-[(2-{[1-(5-aminopyrazin-2-yl)cyclopropyl]amino}pyrimidin-5-yl)carbonyl] benzonitrile] | – | 27.8
16 | N#Cc1cccc(C(=O)c2cnc(NC3(c4ccc(C(N)=O)nc4)CC3)nc2)c1 [Example 152, 5-(1-{[5-(3-cyanobenzoyl)pyrimidin-2-yl]amino}cyclo-propyl)pyridine-2-carboxamide] | – | 77.7
17 | N#Cc1cccc(C(=O)c2cnc(NC3(c4ccc(O)nc4)CC3)nc2)c1 [Example 153, 3-[(2-{[1-(6-hydroxypyridin-3-yl)cyclopropyl]amino}pyrimidin-5-yl)carbonyl] benzonitrile] | – | 307
18 | COc1ccc(COc2ncc(C(=O)c3cccc(C(F)(F)F)c3)cn2)cc1 [Example 157, {2-[(4-methoxybenzyl)oxy]pyrimidin-5-yl}[3-(trifluoromethyl)phenyl]methanone] | > 2340 | –
19 | O=C(c1cnc(OCc2ccc(OC(F)(F)F)cc2)nc1)c1cccc(C(F)(F)F)c1 [Example 158, (2-{[4-(trifluoromethoxy)benzyl]oxy}pyrimidin-5-yl)[3-(trifluoromethyl)phenyl]methanone] | > 2890 | –
20 | COc1ccc(C(=O)c2cnc(NC3(c4cncnc4)CC3)nc2)cc1C#N [Example 161, 2-methoxy-5-[(2-{[1-(pyrimidin-5-yl)cyclopropyl]amino}pyrimidin-5-yl)carbonyl] benzonitrile] | – | 1850
21 | N#Cc1cccc(C(=O)c2cnc(NCC3CCC(O)CC3)nc2)c1 (stereo not drawn) [Example 162, 3-[(2-{[(4-hydroxycyclohexyl)methyl]amino}pyrimidin-5-yl)carbonyl] benzonitrile] | – | 72.6

The remaining lines, values ahead:

Row | IC50 (human vanin-1 [1]) [nM] | IC50 (human vanin-1 [2]) [nM] | Structure (SMILES)
22 | 31 | – | O=C(c1cnc(NCc2ccc(F)cc2)nc1)c1cccc(Cl)c1 [Example 36, (3-chlorophenyl){2-[(4-fluorobenzyl)amino]pyrimidin-5-yl}methanone]
23 | 204 | – | N#Cc1ccc(CNc2ncc(C(=O)c3ccc(C(F)(F)F)cc3)cn2)cc1 [Example 50, 4-[({5-[4-(trifluoromethyl)benzoyl]pyrimidin-2-yl}amino)methyl] benzonitrile]
24 | 44.9 | – | O=C(c1ccc(C(F)(F)F)cc1)c1cnc(NCc2cccnc2)nc1 [Example 51, {2-[(pyridin-3-ylmethyl)amino]pyrimidin-5-yl}[4-(trifluoromethyl)phenyl]methanone]
25 | 170 | – | O=C(c1ccc(Cl)cc1)c1cnc(NCc2ccc(F)cc2)nc1 [Example 52, (4-chlorophenyl){2-[(4-fluorobenzyl)amino]pyrimidin-5-yl}methanone]
26 | 637 | – | COc1ccc(CNc2ncc(C(=O)c3ccc(OC)cc3)cn2)cc1 [Example 53, {2-[(4-methoxybenzyl)amino]pyrimidin-5-yl}(4-methoxyphenyl) methanone]
27 | 35.4 | – | O=C(c1ccc(C(F)(F)F)cc1)c1cnc(NCc2ccc(F)cc2)nc1 [Example 54, {2-[(4-fluorobenzyl)amino]pyrimidin-5-yl}[4-(trifluoromethyl)phenyl]methanone]
28 | < 16.5 | – | COc1ccc(CNc2ncc(C(=O)c3ccc(C(F)(F)F)cc3)cn2)cc1 [Example 55, {2-[(4-methoxybenzyl)amino]pyrimidin-5-yl}[4-(trifluoromethyl)phenyl]methanone]
29 | 889 | – | O=C(c1ccc(Cl)cc1)c1cnc(NCc2ccc(Cl)cc2)nc1 [Example 57, {2-[(4-chlorobenzyl)amino]pyrimidin-5-yl}(4-chlorophenyl) methanone]
30 | 89.5 | – | COc1ccc(C(=O)c2cnc(NCc3ccccn3)nc2)cc1 [Example 60, (4-methoxyphenyl) {2-[(pyridin-2-ylmethyl)amino]pyrimidin-5-yl}methanone]
31 | 569 | – | COc1ccc(CNc2ncc(C(=O)c3ccc(Cl)cc3)cn2)cc1 [Example 63, (4-chlorophenyl){2-[(4-methoxybenzyl)amino]pyrimidin-5-yl}methanone]
32 | 736 | – | COc1ccc(C(=O)c2cnc(NCc3ccccc3)nc2)cc1 [Example 74, [2-(benzylamino)pyrimidin-5-yl](4-methoxyphenyl) methanone]
33 | 617 | – | COc1ccc(C(=O)c2cnc(NCc3ccc(OC(F)(F)F)cc3)nc2)cc1 [Example 75, (4-methoxyphenyl) (2-{[4-(trifluoromethoxy)benzyl]amino}pyrimidin-5-yl)methanone]
34 | 998 | – | COc1ccc(C(=O)c2cnc(NCc3cccc(C#N)c3)nc2)cc1 [Example 77, 3-({[5-(4-methoxybenzoyl)pyrimidin-2-yl]amino}methyl) benzonitrile]
